Key:
Format in all cases: in vivo
[1] = system: wheat (Triticum aestivum); experiment: Test A postemergence; conditions: Triticum aestivum, post-emergence, 240 h
Outline: (§1)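 Each rating is a visual injury score from 0 to 100 given about 10 d after treatment, judged against untreated controls kept alongside in the greenhouse. In loam soil–sand blend, seeds got a preemergence directed soil spray, while postemergence plants were 2 to 10 cm tall at spraying.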

[2] = system: blackgrass (Alopecurus myosuroides); experiment: Test A postemergence; conditions: Alopecurus myosuroides, post-emergence, 240 h
Outline: as §1

[3] = system: Galium (catchweed bedstraw, Galium aparine); experiment: Test A postemergence; conditions: Galium, post-emergence, 240 h
Outline: as §1

[4] = system: giant foxtail (Setaria faberii); experiment: Test A postemergence; conditions: Setaria faberi, post-emergence, 240 h
Outline: as §1

[5] = system: ragweed (common ragweed, Ambrosia elatior); experiment: Test A postemergence; conditions: Ambrosia artemisiifolia, post-emergence, 240 h
Outline: as §1

[6] = system: pigweed (Amaranthus retroflexus); experiment: Test A postemergence; conditions: Amaranthus retroflexus, post-emergence, 240 h
Outline: as §1

[7] = system: ryegrass, Italian (Italian ryegrass, Lolium multiflorum); experiment: Test A postemergence; conditions: Lolium multiflorum, post-emergence, 240 h
Outline: as §1

Kochia (Kochia scoparia) [8] = experiment: Test A postemergence; conditions: Bassia scoparia, post-emergence, 240 h
Outline: as §1

[9] = system: barnyardgrass (Echinochloa crus-galli); experiment: Test A postemergence; conditions: Echinochloa crus-galli, post-emergence, 240 h
Outline: as §1

corn (Zea mays) = experiment: Test A postemergence; conditions: Zea mays, post-emergence, 240 h
Outline: as §1

rice (Oryra sativa) = experiment: Test B flooded paddy test; conditions: Oryza sativa, 250 g ai/ha, Flood; 0 to 100 scale where 0 is no effect and 100 is complete control; read-out: Rice plant response rating
Outline: (§2)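 Visual ratings (0 none to 100 complete control) are relative to untreated plants, taken 13–15 d after treatment in a greenhouse. Test material went straight into floodwater standing 3 cm above the soil, kept constant, on plants at the 2-leaf stage.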

[10] = system: sedge, umbrella (small-flower umbrella sedge, Cyperus difformis); experiment: Test B flooded paddy test; conditions: Cyperus difformis, 250 g ai/ha, Flood; 0 to 100 scale where 0 is no effect and 100 is complete control; read-out: Sedge, Umbrella plant response rating
Outline: as §2

[11] = system: ducksalad (Heteranthera limosa); experiment: Test B flooded paddy test; conditions: Heteranthera limosa, 250 g ai/ha, Flood; 0 to 100 scale where 0 is no effect and 100 is complete control; read-out: Ducksalad plant response rating
Outline: as §2

[12] = system: barnyardgrass (Echinochloa crus-galli); experiment: Test B flooded paddy test; conditions: Echinochloa crus-galli, 250 g ai/ha, Flood; 0 to 100 scale where 0 is no effect and 100 is complete control; read-out: Barnyardgrass plant response rating
Outline: as §2

[13] = system: giant foxtail (Setaria faberii); experiment: Test A preemergence; conditions: Setaria faberi, pre-emergence, 240 h, 0 to 100 scale where 0 is no effect and 100 is complete control, read-out: Foxtail, Giant plant response rating
Outline: as §1

[14] = system: ragweed (common ragweed, Ambrosia elatior); experiment: Test A preemergence; conditions: Ambrosia artemisiifolia, pre-emergence, 240 h, 0 to 100 scale where 0 is no effect and 100 is complete control, read-out: Ragweed plant response rating
Outline: as §1

[15] = system: pigweed (Amaranthus retroflexus); experiment: Test A preemergence; conditions: Amaranthus retroflexus, pre-emergence, 240 h, 0 to 100 scale where 0 is no effect and 100 is complete control, read-out: Pigweed plant response rating
[16] = system: ryegrass, Italian (Italian ryegrass, Lolium multiflorum); experiment: Test A preemergence; conditions: Lolium multiflorum, pre-emergence, 240 h, 0 to 100 scale where 0 is no effect and 100 is complete control, read-out: Ryegrass, Italian plant response rating
Outline: as §1

Kochia (Kochia scoparia) [17] = experiment: Test A preemergence; conditions: Bassia scoparia, pre-emergence, 240 h, 0 to 100 scale where 0 is no effect and 100 is complete control, read-out: Kochia plant response rating
Outline: as §1

[18] = system: barnyardgrass (Echinochloa crus-galli); experiment: Test A preemergence; conditions: Echinochloa crus-galli, pre-emergence, 240 h, 0 to 100 scale where 0 is no effect and 100 is complete control, read-out: Barnyardgrass plant response rating
Outline: as §1

[19] = 125 g ai/ha, preemergence, approx. 10 d

O=C1NC[C@H](c2csc3c2CCC3)[C@H]1C(=O)Nc1cccc(F)c1F [Compound 1164]
40%: pest or weed control at 250 g/ha [12]
60%: pest or weed control at 31 g/ha ([18]; 31 g ai/ha, Preemergence)
0%: plant injury at 125 g/ha ([1]; 125 g ai/ha, postemergence, visual injury vs untreated controls after approx. 10 d, 0 = no effect, 100 = complete control, read-out: Wheat plant response rating (0 to 100 scale)) | plant injury at 31 g/ha ([1]; Postemergence, 31 g ai/ha, visual injury after approx. 10 d, 0 to 100 scale, 0 no effect, 100 complete control, read-out: Plant response rating, Wheat) | pest or weed control at 125 g/ha ([2]; 125 g ai/ha, postemergence, visual injury vs untreated controls after approx. 10 d, 0 = no effect, 100 = complete control, read-out: Blackgrass plant response rating (0 to 100 scale)) | pest or weed control at 31 g/ha ([2]; Postemergence, 31 g ai/ha, visual injury after approx. 10 d, 0 to 100 scale, 0 no effect, 100 complete control, read-out: Plant response rating, Blackgrass) | pest or weed control at 31 g/ha ([3]; Postemergence, 31 g ai/ha, visual injury after approx. 10 d, 0 to 100 scale, 0 no effect, 100 complete control, read-out: Plant response rating, Galium) | pest or weed control at 125 g/ha ([4]; 125 g ai/ha, postemergence, visual injury vs untreated controls after approx. 10 d, 0 = no effect, 100 = complete control, read-out: Foxtail, Giant plant response rating (0 to 100 scale)) | pest or weed control at 31 g/ha ([4]; Postemergence, 31 g ai/ha, visual injury after approx. 10 d, 0 to 100 scale, 0 no effect, 100 complete control, read-out: Plant response rating, Foxtail, Giant) | pest or weed control at 125 g/ha ([5]; 125 g ai/ha, postemergence, visual injury vs untreated controls after approx. 10 d, 0 = no effect, 100 = complete control, read-out: Ragweed plant response rating (0 to 100 scale)) | pest or weed control at 31 g/ha ([5]; Postemergence, 31 g ai/ha, visual injury after approx. 10 d, 0 to 100 scale, 0 no effect, 100 complete control, read-out: Plant response rating, Ragweed) | pest or weed control at 125 g/ha ([6]; 125 g ai/ha, postemergence, visual injury vs untreated controls after approx. 10 d, 0 = no effect, 100 = complete control, read-out: Pigweed plant response rating (0 to 100 scale)) | pest or weed control at 31 g/ha ([6]; Postemergence, 31 g ai/ha, visual injury after approx. 10 d, 0 to 100 scale, 0 no effect, 100 complete control, read-out: Plant response rating, Pigweed) | pest or weed control at 125 g/ha ([7]; 125 g ai/ha, postemergence, visual injury vs untreated controls after approx. 10 d, 0 = no effect, 100 = complete control, read-out: Ryegrass, Italian plant response rating (0 to 100 scale)) | pest or weed control at 31 g/ha ([7]; Postemergence, 31 g ai/ha, visual injury after approx. 10 d, 0 to 100 scale, 0 no effect, 100 complete control, read-out: Plant response rating, Ryegrass, Italian) | pest or weed control at 125 g/ha (Kochia (Kochia scoparia) [8]; 125 g ai/ha, postemergence, visual injury vs untreated controls after approx. 10 d, 0 = no effect, 100 = complete control, read-out: Kochia plant response rating (0 to 100 scale)) | pest or weed control at 31 g/ha (Kochia (Kochia scoparia) [8]; Postemergence, 31 g ai/ha, visual injury after approx. 10 d, 0 to 100 scale, 0 no effect, 100 complete control, read-out: Plant response rating, Kochia) | plant injury at 125 g/ha (corn (Zea mays); 125 g ai/ha, postemergence, visual injury vs untreated controls after approx. 10 d, 0 = no effect, 100 = complete control, read-out: Corn plant response rating (0 to 100 scale)) | Corn plant response rating (crop injury, 0 = no effect, 100 = complete kill) at 31 g/ha (corn (Zea mays); Postemergence, 31 g ai/ha, visual injury after approx. 10 d, 0 to 100 scale, 0 no effect, 100 complete control) | pest or weed control at 250 g/ha (rice (Oryra sativa)) | pest or weed control at 250 g/ha [10] | pest or weed control at 31 g/ha ([14]; 31 g ai/ha, Preemergence) | pest or weed control at 125 g/ha [14, 19] | pest or weed control at 31 g/ha ([15]; 31 g ai/ha, Preemergence) | pest or weed control at 125 g/ha [15, 19] | pest or weed control at 31 g/ha ([16]; 31 g ai/ha, Preemergence) | pest or weed control at 125 g/ha [16, 19] | pest or weed control at 31 g/ha (Kochia (Kochia scoparia) [17]; 31 g ai/ha, Preemergence)
80%: pest or weed control at 125 g/ha ([9]; 125 g ai/ha, postemergence, visual injury vs untreated controls after approx. 10 d, 0 = no effect, 100 = complete control, read-out: Barnyardgrass plant response rating (0 to 100 scale)) | pest or weed control at 125 g/ha [18, 19]
95%: pest or weed control at 250 g/ha [11]
20%: pest or weed control at 125 g/ha (Kochia (Kochia scoparia) [17]; [19])
30%: pest or weed control at 125 g/ha ([3]; 125 g ai/ha, postemergence, visual injury vs untreated controls after approx. 10 d, 0 = no effect, 100 = complete control, read-out: Galium plant response rating (0 to 100 scale)) | pest or weed control at 31 g/ha ([9]; Postemergence, 31 g ai/ha, visual injury after approx. 10 d, 0 to 100 scale, 0 no effect, 100 complete control, read-out: Plant response rating, Barnyardgrass) | pest or weed control at 31 g/ha ([13]; 31 g ai/ha, Preemergence) | pest or weed control at 125 g/ha [13, 19]
